# Data: paper PMC2900413 (Biochemical pharmacology, 2010)
# Entries after “also recorded” stand apart in the source; their conditions may differ.
# What was measured:
# [1] = target: A2AAR (Homo sapiens, UniProt P29274); assay: Cyclic AMP accumulation assay, CHO cells expressing the A2AAR; settings: CGS21680-induced cyclic AMP accumulation in CHO cells expressing the A2AAR
# [2] = target: T1, A1 AR (Homo sapiens, UniProt P30542); assay: Radioligand membrane binding assay at the A1 AR with [3H]R-PIA
# T1 sequence (P30542 1-326): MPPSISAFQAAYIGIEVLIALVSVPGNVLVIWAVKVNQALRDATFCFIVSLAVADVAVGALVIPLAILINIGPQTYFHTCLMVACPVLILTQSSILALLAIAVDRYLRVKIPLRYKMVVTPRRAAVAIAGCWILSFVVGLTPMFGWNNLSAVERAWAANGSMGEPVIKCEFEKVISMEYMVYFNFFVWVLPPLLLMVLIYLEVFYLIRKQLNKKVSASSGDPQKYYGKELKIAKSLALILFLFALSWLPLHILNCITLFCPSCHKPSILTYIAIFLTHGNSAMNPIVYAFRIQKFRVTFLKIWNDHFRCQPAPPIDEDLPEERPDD
# [3] = target: T2, A3 AR (Homo sapiens, UniProt P0DMS8); assay: Radioligand membrane binding assay at the A3 AR with [125I]AB-MECA
# T2 sequence (P0DMS8 1-318): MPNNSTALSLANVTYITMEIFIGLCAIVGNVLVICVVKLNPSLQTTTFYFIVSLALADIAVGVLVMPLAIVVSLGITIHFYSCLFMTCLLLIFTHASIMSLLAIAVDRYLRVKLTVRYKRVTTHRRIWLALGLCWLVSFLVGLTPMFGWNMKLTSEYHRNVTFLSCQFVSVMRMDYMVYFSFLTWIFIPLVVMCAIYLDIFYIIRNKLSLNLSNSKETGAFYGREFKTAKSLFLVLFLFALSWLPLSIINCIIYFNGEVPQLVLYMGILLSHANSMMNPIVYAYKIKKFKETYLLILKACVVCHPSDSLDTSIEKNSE
# [4] = target: T3, A2B AR (Homo sapiens, UniProt P29275); assay: Cyclic AMP accumulation assay, CHO cells expressing the A2B AR; type: cell-based; settings: at 10 μM
# T3 sequence (P29275 1-332): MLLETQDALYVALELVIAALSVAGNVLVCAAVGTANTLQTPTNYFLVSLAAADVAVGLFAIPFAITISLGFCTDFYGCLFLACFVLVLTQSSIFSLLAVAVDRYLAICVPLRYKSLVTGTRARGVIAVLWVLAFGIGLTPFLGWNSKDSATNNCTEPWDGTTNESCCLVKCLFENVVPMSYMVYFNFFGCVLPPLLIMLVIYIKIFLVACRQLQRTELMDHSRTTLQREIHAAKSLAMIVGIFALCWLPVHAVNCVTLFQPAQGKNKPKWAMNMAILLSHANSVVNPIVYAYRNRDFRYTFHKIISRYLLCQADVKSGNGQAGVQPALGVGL
# [5] = target: A2AAR; settings: read-out: Ki, radioligand binding; reported values; ref [1], [27], [28], [29]; cited from earlier work
# Sequence of A2AAR (Homo sapiens, UniProt P29274) (P29274 whole entry): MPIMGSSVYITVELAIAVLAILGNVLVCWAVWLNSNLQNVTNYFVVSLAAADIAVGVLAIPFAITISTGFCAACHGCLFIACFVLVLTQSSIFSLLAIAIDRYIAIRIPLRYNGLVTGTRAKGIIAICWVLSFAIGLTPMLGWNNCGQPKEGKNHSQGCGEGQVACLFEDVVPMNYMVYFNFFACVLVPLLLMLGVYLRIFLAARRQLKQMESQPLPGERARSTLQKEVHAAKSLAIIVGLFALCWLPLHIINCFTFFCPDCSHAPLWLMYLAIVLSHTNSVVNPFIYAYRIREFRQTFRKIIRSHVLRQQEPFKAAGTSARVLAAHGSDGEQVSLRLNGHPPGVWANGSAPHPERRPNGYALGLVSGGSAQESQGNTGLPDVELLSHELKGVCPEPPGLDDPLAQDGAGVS
effect on A1 AR in binding ([2]; at 10 μM),inhibition at 10 µM ([2]; read-out: inhibition of radioligand binding at A1 AR),effect on A3 AR in binding ([3]; at 10 μM),inhibition at 10 µM ([3]; read-out: inhibition of radioligand binding at A3 AR),Compound,functional activity in cyclic AMP assay at the A2AAR [1],effect on NECA-induced cyclic AMP accumulation [4],Ki [5]
did not show any effect,4.6 ± 1.9%,did not show any effect,3.8 ± 2.1%,"N=c1ccc2c(-c3ccc(C(=O)NCCNC(=O)COc4ccc(CCCn5ncc6c5nc(N)n5nc(-c7ccco7)nc65)cc4)cc3C(=O)O)c3ccc(N)c(S(=O)(=O)O)c3oc-2c1S(=O)(=O)O [MRS5346, 5-((2-(2-(4-(3-(5-amino-2-(furan-2-yl)-7H-pyrazolo[4,3-e][1,2,4]triazolo[1,5-c]pyrimidin-7-yl)propyl)phenoxy)acetamido)-ethyl)-carbamoyl)-2-(6-amino-3-iminio-4,5-disulfonato-3H-xanthen-9-yl)benzoate]",antagonist; also recorded: inhibited cyclic AMP accumulation,did not show any effect; also recorded: did not inhibit,
,,,,OC[C@H]1O[C@@H](n2cnc3c(NC4CCCC4)ncnc32)[C@H](O)[C@@H]1O [CPA],,,794 nM
